Entries after “also recorded” stand apart in the source; their conditions may differ. Like-named read-outs stand apart in the source and are kept apart here.

Series [1] has as its system paw oedemas, caused by the administration of kaolin. Briefly: kaolin paw oedema, antiphlogistic action in rats. The series is classed as in vivo. The source says:
The anti-inflammatory action was detected in paw oedemas, caused by the administration of kaolin, in rats.
In addition to the effects described for compound A, it could also be shown that the other derivatives (see Table 2) likewise have a powerful anti-inflammatory action. The minimum doses which still cause a clearly detectable effect on the paw oedema after the administration of kaolin are listed in Table 2.
Rats, kaolin oedema, intramuscularly, n = 10/dose group

A short description of series [2]: stomach ulcer (ulcerogenic action) in rats. To be noted: rat, in vivo.
Series [3] concerns paw oedemas, caused by the administration of kaolin. Briefly: kaolin paw oedema, antiphlogistic action in rats. The series is classed as in vivo. As to conditions: Rattus norvegicus, read-out: Kaolin oedema ED50.
Series [4] can be described thus: in vivo. To be noted: rat.
Series [5] in a line: comparison of the therapeutic range. As to conditions: rat, in vivo.
The subject of series [6] is kaolin oedema. Briefly: comparison of the therapeutic range.
Series [7] deals with formalin oedema. Briefly: formalin oedema. To be noted: im; intramuscularly. The series is classed as in vivo. From the text:
(§1) Furthermore, A also has an action on other inflammation models. The ED50 values which follow are found (mg/kg; intramuscularly): formalin oedema 5.4, albumin oedema 6.3, yeast oedema 27.4, concanavalin oedema 3.4 and trypsin oedema 2.0.

For series [8], the system named is albumin oedema. Briefly: albumin oedema. As to conditions: im; intramuscularly. The class given is in vivo.
Description: as §1

Series [9] deals with yeast oedema. Briefly: yeast oedema. The class given is in vivo. To be noted: im; intramuscularly.
Description: as §1

Series [10] concerns concanavalin oedema. Briefly: concanavalin oedema. The class given is in vivo. As to conditions: im; intramuscularly.
Description: as §1

Series [11] deals with trypsin oedema. Briefly: trypsin oedema. As to conditions: im; intramuscularly. The series is classed as in vivo.
Description: as §1

Series [12] concerns rats. As to conditions: intramuscular.
[13] abbreviates: Rattus norvegicus, im, rats, kaolin oedema, intramuscularly, n = 10/dose group, read-out: Inhibition in % of the controls.
The mark [14] stands for this setting: Rattus norvegicus, im, rats, intramuscularly, n = 10/dose group, read-out: ED50 (kaolin oedema).
Setting [15] is: po, Therapeutic range LD50 / ED50 kaolin oedema, rats.

Turning to `C=C(C)C(=O)SC` [CH2 =C(CH3)COSCH3, S-methyl methacrylthioate], the inhibition in vivo at 5 mg/kg in [1] (Rattus norvegicus, im, rats, kaolin oedema, intramuscularly, dose 5.00 mg/kg, n = 10/dose group, read-out: Inhibition in % of the controls) was found to be 21.8%.
Consider `CC(C)CSC(=O)CC[S+]([O-])CC(C)C` (centres unmarked) [S-isobutyl 3-isobutylsulphinylpropionothioate], for which the inhibition in vivo at 12.5 mg/kg in series [1] (setting [13]) worked out at 17.9%.
The same measure, in the same setting: as for `CC(C)CSC(=O)CCS(=O)(=O)CC(C)C` [(CH3)2 CHCH2 SO2 CH2 CH2 COSCH2 CH(CH3)2, S-Isobutyl 3-isobutylsulphonylpropionothioate], the figure is 42%.
As to `CCC(C)SC(=O)CC[S+]([O-])C(C)CC` (centres unmarked) [S-sec.-Butyl 3-sec.-butylsulphinylpropionothioate], the inhibition in vivo at 100 mg/kg in [1] (setting [13]) was 90.5%.
`CCSCCC(=O)SCC` [C2 H5 SCH2 CH2 COSC2 H5, S-Ethyl 3-ethylthiopropionothioate]: the ED50 in series [1] (setting [14]) worked out at 3.75 mg/kg. In addition, in series [1] (Rattus norvegicus, im, rats, kaolin oedema, intramuscularly, dose 2.50 mg/kg, n = 10/dose group, read-out: Inhibition in % of the controls), the inhibition in vivo at 2.5 mg/kg came out at 58.2%.
For the compound `CCCSCCC(=O)SCCC` [C3 H7 SCH2 CH2 COSC3 H7, S-Propyl 3-propylthiopropionothioate], in [1] (setting [13]), the inhibition in vivo at 25 mg/kg is 68.5%.
As to `CCCCSCCC(=O)SCCCC` [C4 H9 SCH2 CH2 COSC4 H9, S-Butyl 3-butylthiopropionothioate], in series [1] (setting [13]), the inhibition in vivo at 50 mg/kg is 77.2%.
In the case of `CC(C)SC(=O)CC[S+]([O-])C(C)C` (centres unmarked) [(CH3)2 CHSOCH2 CH2 COSCH(CH3)2, S-Isopropyl 3-isopropylsulphinylpropionothioate], in series [1] (setting [13]), the inhibition in vivo at 12.5 mg/kg worked out at 22.7%.
For the compound `CSC(=O)CC[S+](C)[O-]` (centres unmarked) [CH3 SOCH2 CH2 COSCH3, S-Methyl 3-methylsulphinylpropionothioate], in series [1] (setting [14]), the ED50 turned out to be 1.8 mg/kg. Also, the inhibition in vivo at 3.12 mg/kg in series [1] (Rattus norvegicus, im, rats, kaolin oedema, intramuscularly, dose 3.12 mg/kg, n = 10/dose group, read-out: Inhibition in % of the controls) was determined as 10.2%.
As for `CC(C)(C)SCCC(=O)SC(C)(C)C` [(CH3)3 CSCH2 CH2 COSC(CH3)3, S-tert.-butyl 3-tert.-butylthiopropionothioate], in series [1] (setting [13]), the inhibition in vivo at 12.5 mg/kg was 23.3%.
Turning to `COc1ccc2c(c1)c(CC(=O)O)c(C)n2C(=O)c1ccc(Cl)cc1` [Indometacin], in series [2] (rats, oral, read-out: Stomach ulcer ED50), the TD50 stood at 11.1 µmol/kg. Besides, in [3] (po), the ED50 was 2.9 µmol/kg. The compound further gave an LD50 in series [4] (po) of 68 µmol/kg. For the same compound, the selectivity ratio in series [5] (po, Therapeutic range ED50 ulcer / ED50 kaolin oedema, rats) turned out to be 3.81; in [5] (setting [15]), 23.4.
Consider `CCCCC1C(=O)N(c2ccccc2)N(c2ccccc2)C1=O` [Phenylbutazone], for which the TD50 in series [2] (po) stood at 182 µmol/kg. The ED50 in series [3] (rats, oral) came to 122 µmol/kg.
Turning to `CCCSC(=O)CC[S+]([O-])CCC` (centres unmarked) [C3 H7 SOCH2 CH2 COSC3 H7, S-Propyl 3-propylsulphinylpropionothioate], the inhibition in vivo at 100 mg/kg in series [1] (setting [13]) was determined as 73%.
Take `CCC(C)SCCC(=O)SC(C)CC` (centres unmarked) [S-sec.-Butyl 3-sec.-butylthiopropionothioate]: in [1] (setting [13]), the inhibition in vivo at 50 mg/kg was 72%.
Consider `CCOC(=O)CCSC` [CH3 SCH2 CH2 COOC2 H5, Ethyl 3-methylthiopropionate], for which the inhibition in vivo at 25 mg/kg in series [1] (setting [13]) was found to be 16%.
For the compound `CSCC(C)C(=O)SC` (centres unmarked) [CH3 SCH2 CH(CH3)COSCH3, S-methyl 3-methylthio-2-propylcarbonylthioate], in series [1] (setting [14]), the 50% effective dose (ED50) came to 4.5 mg/kg. Further, the inhibition in vivo at 0.65 mg/kg in series [1] (Rattus norvegicus, im, rats, kaolin oedema, intramuscularly, dose 0.65 mg/kg, n = 10/dose group, read-out: Inhibition in % of the controls) stood at 16.6%.
Turning to `O=C(O)c1ccccc1Nc1cccc(C(F)(F)F)c1` [Flufenamic acid], the TD50 in [2] (po) stood at 55.1 µmol/kg. Besides, in series [3] (rats, oral), the ED50 worked out at 36.2 µmol/kg. The compound further gave an LD50 in [4] (po) of 2040 µmol/kg. Moreover, the selectivity ratio in series [5] (setting [15]) is 56.3. Besides, the “Therapeutic range ED50 ulcer / ED50 kaolin oedema” value in series [6] (rats, oral) is listed as 1.52.
Consider `CC(C)CSCCC(=O)SCC(C)C` [S-Isobutyl 3-isobutylthiopropionothioate], for which, in [1] (setting [13]), the inhibition in vivo at 50 mg/kg was determined as 77.2%.
For the compound `CSCCC(=O)SC` [A, S-methyl 3-methylthiopropionothioate], the ED50 in series [1] (Rattus norvegicus, im, rats, intramuscular, read-out: Kaolin oedema ED50) was 4.85 µmol/kg; in [7], 5.4 mg/kg; in series [8] it was 6.3 mg/kg; in [9], 27.4 mg/kg; in [10], 3.4 mg/kg; in [11], 2 mg/kg. The “antiphlogistic (anti-inflammatory) action, in words” value in series [1] (rat, in vivo) is given as “very pronounced antiphlogistic action”. Also, in [2] (im), the TD50 was 256 µmol/kg. Also, the values for the LD50 in series [12] and in series [4] (im) were 4,587 μmols/kg and 4590 µmol/kg, respectively. The selectivity ratio came out at 52.9 in [5] and 946 in [5] (Therapeutic range LD50 / ED50 kaolin oedema, rats, intramuscular). For the same compound, the “therapeutic range, in words” value in [6] (rat, in vivo) is listed as “wide therapeutic range; also recorded: unexpected favourable therapeutic range”.
In the case of `O=C(O)CCS` [HSCH2 CH2 COOH, 3-mercaptopropionic acid], the inhibition in vivo at 20 mg/kg in [1] (Rattus norvegicus, im, rats, kaolin oedema, intramuscularly, dose 20.00 mg/kg, n = 10/dose group, read-out: Inhibition in % of the controls) worked out at 8.5%.
As for `CC=CC(=O)SC` [CH3 CH=CHCOSCH3, S-methyl crotonylthioate], the inhibition in vivo at 12.5 mg/kg in series [1] (setting [13]) is 16%.
In the case of `CC(C)SCCC(=O)SC(C)C` [(CH3)2 CHSCH2 CH2 COSCH(CH3)2, S-Isopropyl 3-isopropylthiopropionothioate], the inhibition in vivo at 25 mg/kg in [1] (setting [13]) amounted to 63.2%.
In the case of `CCC(C)SC(=O)CCS(=O)(=O)C(C)CC` (centres unmarked) [S-sec.-Butyl 3-sec.-butylsulphonylpropionothioate], the inhibition in vivo at 12.5 mg/kg in [1] (setting [13]) is 33%.
Turning to `CCCCSC(=O)CC[S+]([O-])CCCC` (centres unmarked) [C4 H9 SOCH2 CH2 COSC4 H9, S-Butyl 3-butylsulphinylpropionothioate], the inhibition in vivo at 100 mg/kg in [1] (setting [13]) stood at 73%.
With `C=CC(=O)SCC` [CH2 =CHCOSC2 H5, S-ethyl acrylthioate], the ED50 in series [1] (setting [14]) is 1.5 mg/kg. Moreover, the inhibition in vivo at 0.32 mg/kg in [1] (Rattus norvegicus, im, rats, kaolin oedema, intramuscularly, dose 0.32 mg/kg, n = 10/dose group, read-out: Inhibition in % of the controls) is 18.5%.

Broadly, the ED50 is the midpoint of the dose-response relation. As usually defined, the LD50 is the dose at which mortality reaches 50%. Lower therefore signals greater toxicity.
